Results on eight compounds are retold here after PMC10099813, “Stafiba: A STAT5‐Selective Small‐Molecule Inhibitor” (Chembiochem, 2022).

One data set concerns the target T1, STAT5a (Homo sapiens, UniProt P42229).
T1 sequence (P42229 1-794): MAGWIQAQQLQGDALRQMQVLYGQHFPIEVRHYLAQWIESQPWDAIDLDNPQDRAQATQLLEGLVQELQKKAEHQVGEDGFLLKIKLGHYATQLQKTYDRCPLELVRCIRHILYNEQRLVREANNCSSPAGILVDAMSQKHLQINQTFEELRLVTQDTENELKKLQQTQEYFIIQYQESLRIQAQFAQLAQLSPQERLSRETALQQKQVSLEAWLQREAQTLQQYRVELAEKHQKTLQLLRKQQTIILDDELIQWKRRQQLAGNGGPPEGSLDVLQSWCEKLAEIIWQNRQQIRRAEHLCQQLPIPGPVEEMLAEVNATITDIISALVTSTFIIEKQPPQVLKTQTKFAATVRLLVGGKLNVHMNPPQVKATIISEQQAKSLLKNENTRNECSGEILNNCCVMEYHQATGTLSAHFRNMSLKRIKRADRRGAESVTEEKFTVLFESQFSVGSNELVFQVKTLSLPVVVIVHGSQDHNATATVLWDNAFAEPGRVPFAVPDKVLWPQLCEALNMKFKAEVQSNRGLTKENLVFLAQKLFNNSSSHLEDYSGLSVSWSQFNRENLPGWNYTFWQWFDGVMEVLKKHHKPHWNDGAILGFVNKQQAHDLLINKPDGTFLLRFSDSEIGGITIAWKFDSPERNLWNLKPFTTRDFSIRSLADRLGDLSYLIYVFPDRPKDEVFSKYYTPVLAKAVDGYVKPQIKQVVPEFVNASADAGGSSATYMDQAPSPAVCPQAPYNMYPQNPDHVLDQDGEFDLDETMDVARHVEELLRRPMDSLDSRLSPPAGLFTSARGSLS
Briefly: Competitive fluorescence polarization (FP) binding assay, STAT5a SH2 domain. The note with it: FP assay; for Ki: Ki calculated from IC50 (n=3) via published equation; for Ki / IC50: 2 % DMSO (10 % DMSO for 10); for IC50: n=3 unless stated; for inhibition at 100 µM: the highest concentration tested, read-out: maximum inhibition at 100 µM (STAT5a). As for the experimental part: (§1) Fluorescence polarization assays: Competitive binding assays based on fluorescence polarization were carried out essentially as previously described.[[4a]] Unless stated otherwise, final concentrations of the buffer components were: 10 mM Tris (pH 8.0), 50 mM NaCl, 1 mM EDTA, 1 mM DTT, 0.1 % (v/v) Nonidet P‐40 substitute, and 2 % DMSO. Proteins were used at concentrations which reflect the Kd values of the interactions between the fluoropeptide and the protein preparations. Protein concentrations used for activity analysis of compound 5 were 91 nM for STAT1, 107 nM for STAT3, 28 nM for STAT4, 122 nM for STAT5a, 56 nM for STAT5b and 101 nM for STAT6. Protein concentrations used for activity analysis of AC‐4‐130 were 103 nM for STAT5a and 62 nM for STAT5b. […] Final concentration of all fluorescent‐labelled peptides was 10 nM. The following peptides were used in assays: 5‐carboxyfluorescein‐GpYDKPHVL for STAT1; 5‐carboxyfluorescein‐GpYLPQTV‐NH2 for STAT3; 5‐carboxyfluorescein‐GpYLPQNID for STAT4; 5‐carboxyfluorescein‐GpYLVLDKW for STAT5a/5b, and 5‐carboxyfluorescein‐GpYVPWQDLI for STAT6. Protein and test compounds were incubated for 1 h prior to addition of the fluorescein‐labeled peptide. Fluorescence polarization was measured after another 60 min using an Infinite F500 plate reader (Tecan). IC50 values were converted to Ki‐values using the published equation.[13]

In another data set the target is T2, STAT5b (Homo sapiens, UniProt P51692).
T2 sequence (P51692 1-787): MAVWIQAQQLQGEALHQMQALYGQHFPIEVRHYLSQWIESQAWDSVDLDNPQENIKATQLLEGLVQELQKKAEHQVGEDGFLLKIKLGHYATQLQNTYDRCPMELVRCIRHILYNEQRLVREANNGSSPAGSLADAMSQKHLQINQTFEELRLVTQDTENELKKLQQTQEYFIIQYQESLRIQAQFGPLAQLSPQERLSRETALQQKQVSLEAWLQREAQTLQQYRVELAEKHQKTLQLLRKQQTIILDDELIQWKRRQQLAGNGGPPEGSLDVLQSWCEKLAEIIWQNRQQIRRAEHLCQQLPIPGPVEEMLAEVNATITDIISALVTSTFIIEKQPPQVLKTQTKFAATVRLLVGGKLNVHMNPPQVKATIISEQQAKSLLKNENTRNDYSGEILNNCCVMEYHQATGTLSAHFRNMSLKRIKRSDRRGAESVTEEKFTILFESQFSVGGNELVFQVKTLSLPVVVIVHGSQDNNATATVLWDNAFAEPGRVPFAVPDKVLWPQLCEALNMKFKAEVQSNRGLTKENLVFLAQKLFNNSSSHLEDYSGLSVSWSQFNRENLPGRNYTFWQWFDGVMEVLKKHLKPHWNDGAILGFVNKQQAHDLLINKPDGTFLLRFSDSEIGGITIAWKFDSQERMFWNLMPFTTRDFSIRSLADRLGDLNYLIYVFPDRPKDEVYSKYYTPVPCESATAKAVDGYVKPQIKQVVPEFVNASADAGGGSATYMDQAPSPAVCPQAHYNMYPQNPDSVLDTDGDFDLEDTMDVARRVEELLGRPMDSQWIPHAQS
Briefly: Competitive fluorescence polarization (FP) binding assay, STAT5b SH2 domain. The note with it: FP assay; for Ki: Ki calculated from IC50 (n=3) via published equation; for Ki / IC50: 2 % DMSO (10 % DMSO for 10); for IC50: n=3. As for the experimental part: as §1

Data set [1] is described as follows: Solubility as observed during synthesis / stock preparation. Format: physicochemical. The note with it: remark on synthesis.

`O=C(COc1ccc(C(=O)Nc2ccc(Oc3ccccc3)cc2)cc1)NCc1cc(OP(=O)(O)O)cc(OP(=O)(O)O)c1` [compound 4]: at STAT5a, the Ki is 2.5 ± 0.5 µM and the IC50 amounted to 5.2 ± 1 µM. Also, the “increase of activity against STAT5a relative to resorcinol bisphosphate (1)” value at STAT5a (ratio of Ki values) is 9 fold. In addition, on STAT5b, the Ki was 0.9 ± 0.1 µM and the IC50 turned out to be 1.9 ± 0.3 µM. Also, on STAT5b (ratio of Ki values), the “increase of activity against STAT5b relative to resorcinol bisphosphate (1)” value is reported as 23 fold. In data set [1], the “solubility of the final product” value is listed as “limited solubility”.

Consider `O=P(O)(O)Oc1ccc(F)c(OP(=O)(O)O)c1` [compound 6], for which the results for the Ki at STAT5a and on STAT5b were 29.4 ± 0.6 µM and 27.4 ± 2.8 µM, respectively. Besides, the IC50 worked out at 59.4 ± 1.2 µM on STAT5a and 55.8 ± 5.6 µM on STAT5b.

As to `O=P(O)(O)Oc1cccc(OP(=O)(O)O)c1F` [compound 7], at STAT5a, the Ki is 10.8 ± 0.5 µM and the concentration for half-maximal inhibition (IC50) stood at 21.8 ± 0.9 µM. Moreover, at STAT5b, the Ki is 7.6 ± 0.4 µM and the IC50 came to 15.5 ± 0.8 µM.

`O=P(O)(O)C(F)(F)c1cccc(C(F)(F)P(=O)(O)O)c1F` [compound 9]: at STAT5a, the Ki was 15 ± 0.6 µM and the IC50 worked out at 30.7 ± 1.3 µM. On STAT5b, the Ki was 18.9 ± 1.5 µM and the IC50 stood at 38.4 ± 3 µM.

Take `CC(=O)NCc1cc(OP(=O)(O)O)cc(OP(=O)(O)O)c1` [compound 3]: the Ki was 36.4 ± 3.8 µM at STAT5a and 18.7 ± 0.8 µM on STAT5b. Further, the IC50 at STAT5a came to 73.8 ± 7.7 µM; at STAT5b it was 38.1 ± 1.6 µM.

Consider `CC(=O)NCc1ccc(OP(=O)(O)O)cc1OP(=O)(O)O` [compound 2], for which the inhibition at 100 µM at STAT5a amounted to 50 ± 3%. For the same compound, at STAT5b, the Ki was 42.1 ± 1.6 µM and the IC50 was 85.7 ± 3.2 µM.

Turning to `O=P(O)(O)Cc1cccc(CP(=O)(O)O)c1F` [compound 8], the inhibition at 100 µM turned out to be 12 ± 3% at STAT5a and 14 ± 1% on STAT5b (100 µM, read-out: maximum inhibition at 100 µM (STAT5b)).

For `O=P(O)(O)Oc1cccc(OP(=O)(O)O)c1` [compound 1, 1,3-Phenylene bis(dihydrogen phosphate)], on STAT5a, the Ki was 23.3 ± 4.9 µM and the IC50 was determined as 47.2 ± 9.9 µM. At STAT5b, the Ki was 20.4 ± 0.7 µM and the IC50 is 41.6 ± 1.4 µM.

The term Ki denotes a dissociation constant, usually derived from enzyme kinetics or from competition with a known ligand. A word on the IC50: it is the concentration needed to halve the response being measured. Low values mean greater potency, high ones weaker potency. A word on the inhibition: it is the share of the control response that was lost under treatment.
